One data set relates to male ICR mice. The data set can be described thus: Nephrotoxicity test, serologic analysis (BUN, creatinine, uric acid) after i.p. injection. It counts as in vivo. Set-up: unit not given here. The note with it: serum, dose 8x IC50 (cisplatin 7x IC50), average ± SD of 5-6 ICR mice. The method, then:
In order to serologically analyze nephrotoxicity of various Pt complexes, after injecting each agent intraperitneally, blood was exsanguinated after 6 hours, 1 day, 3 days and 7 days, respectively. Then, serum was seperated f rom the blood to detect the values of BUN (Blood urea nitrogen), creatinine and uric acid.^133)
As an experimental animal, male ICR mice each weighing about 25 g were purchased from Korean Experimental Animal Center. The experimental animals were bred in SPF(Specific Pathogen Free) room in Medical School of HanYang University, and food (purchased from SamYang) and water were supplied unrestrictedly.
The experimental animals were divided into a normal control group, a control group and an experimental group, and the experimental group was again divided into a cisplatin dispensing group, a 7(Ac)Cl treated group, a 7(TF)Cl treated group, a 7(Ac)M treated group, a 7(TF)M treated group and a 7FMN treated group.
Each groups comprised 20-22 mice, and each group was again divided into a 6 hour-treating group, a 1 day-treating group, a 3 day-treating group and a 7 day-treating group, which contains 5-6 mice, respectively.
First, a predetermined amount of agent was dissolved in DMSO or ethanol, and then PBS was added thereto to make the total volume be 6.6 ml. At this time, the content of DMSO or ethanol was controlled to be below 5%.
The agent dissolved in PBS was filtered using 0.2μ syringe filter, sterilized, and injected into intraperitoneally. Then, after 6 hours, 1 day, 3 days and 7 days, exsanguination was performed.
After seperating serum by centrifuging the blood exsanguinated from mice at 4,500 rpm for 15 minutes, the serum was kept at the temperature −20° C. BUN (Blood urea nitrogen), creatinine and uric acid were detected using a biochemical automatic analyzing apparatus (Olympus reply, Japan) and average and standard deviation were calculated from the obtained data.
Control group was dissolved in PBS and injected in dose of 6.6 ml/Kg.

The next data set concerns HL60 cells. The data set can be described thus: MTT assay, anti-cancer activity on HL60 cells in vitro. In kind it is cell-based, human. Set-up: Cell Growth: unit not given here. Particulars: for anti-cancer activity (IC50) compared with cisplatin, in words: HL60 cell; for Cell Growth: HL60, 72 hours; for IC50: MTT, 72 hours, read-out: IC50 in HL60 Cell. The method, then: (§1) In order to examine anti-cancer activity of Pt(IV) complexes according to the present invention, MTT, i.e., [3-(4,5-dimethylthiazol-2-yl)-2,5-diphenyltetrazolium bromide] assay was performed on HL60 and L1210 which are leukemic cell of human and mice, respectively.
(§2) MTT assay is a quantitative color analysis based on that mitochondrial dehydrogenase, one of cell enzymes, changes yellow water-soluble MTT into deep-blue water-insoluble formazan, and the amount of the generated formazan is proportioned to active cell numbers.^122-124)
(§3) HL60 and L1210, suspended leukemic cells of humans and mice, respectively are used as cancer cells for determining the anti-cancer activity of the Pt (IV) complex according to the above Examples. They were obtained by cultivating the frozen cells alloted from Korean Cell Line Bank.
(§4) Cells were subject to subculture at the interval of 2-3 days at 37° C. in the presence of 5% CO2 in RPMI 1640 culture medium controlled to contain 1% penicillin-streptomycin (10,000 unit/ml) and 10% FBS, with keeping the cell number between 2×10^5/ml-5×10^5/ml.
(§5) Pt (IV) complexes prepared by the Examples of the present invention were used as pharmaceutical compounds. Among them, a water-soluble compound was used as it was, and a water-insoluble compound was used after dissolving in DMSO or 95% ethanol, adding PBS to be 2 mM concentarion, filtering with 0.2μ syringe filter to be sterile state and performing serial-dilution with a culture medium to control predetermined concentrations. The final concentration of DMSO or 95% ethanol in cell culture medium was controlled to be below 0.1%.
HL60 and L1210 cells were put into 96-well plate in the amount of 10^4/well and then stabilized for a half hour at 37° C. in the presence of 5% CO2. […]
(§6) After cultivating HL60 cell at 37° C. in the presence of 5% CO2 for 72 hours and L1210 for 48 hours, MTT reagent (2 mg/ml) was added 50 μl/well, and an additional cultivation was performed at 37° C. in the presence of 5% CO2 for 4 hours. Then, after centrifuging the resultant at 2000 rpm for 5 minites, the supernatant was removed by 170 μl/well.
(§7) Then, after adding DMSO 150 μl/well, the resultant was laid at 40° C. for 30 minutes and stirred for 3 minutes. Then, absorption test using ELISA reader was performed at 570 nm.
(§8) For calibration, a blank test was performed on the same 96-well plate under the same condition.
(§9) The above-described experiment was performed on more than 3 wells under the same condition with different concentration, and the same experiment was repeated over 3 times.
A general note: Formazan colour is commonly taken as a measure of viable cells.

The subject of a further data set is L1210 cells. The data set can be described thus: MTT assay, anti-cancer activity on L1210 cells in vitro. It counts as cell-based, mice. The arrangement: Cell Growth: unit not given here. Particulars: for Cell Growth: L1210, 48 hours; for IC50: MTT, 48 hours, read-out: IC50 in L1210 Cell; for anti-cancer activity (IC50) compared with cisplatin, in words: L1210 cell. How it is done: as §1, §2, §3, §4, §5
HL60 and L1210 cells were put into 96-well plate in the amount of 10^4/well and then stabilized for a half hour at 37° C. in the presence of 5% CO2.
as §6, §7, §8, §9

In data set [1] the test system is proximal renal tubule cells. The data set can be described thus: Nephrotoxicity test, electron microscopic findings (TEM) of proximal renal tubule. It counts as in vivo, mice. The method, then:
In order to observe the ultra-structural changes of proximal renal tubule cells, a part of renal cortex of kidney was finely cut in the size of 1 mm^3, pre-fixed with 2% glutaraldehyde-2.5% paraformaldehyde solution, which is prepared with Millonig's phosphate buffer (pH 7.2) at 4° C. for 2-4 hours, and post-fixed with 1% osmium tetroxide for 2 hours, which is diluted with the same buffer solution. Then, after dehydrating the specimen according to ethanol-acetone concentration difference and embeding in Epon 812, it was made to be 2-5 μm thickness in thin section using ultramicrotome and temporarily stained with methylene blue to determine a proper site. Then, it was prepared tobe 60-80 nm thickness of the ultra-thin section, subject to double-staining with uranyl acetate and lead citrate, and observed with TEM (transmission electron microscope; Hitachi-600, Japan).

Setting [2] is: 1 Day after single i.p. injection.
[3] abbreviates: 7 Day after single i.p. injection.
Setting [4] is: 6 hour after single i.p. injection.
Where [5] appears, read: 3 day after single i.p. injection.

For orientation: IC50 means the midpoint of a concentration-inhibition curve.

For `CC(=O)[O][Pt]12([O]C(C)=O)([NH]CCCC[NH]1)[O]C(=O)CC(=O)[O]2` [7(Ac)M, trans-diacetato,malonato-1,4-butanediamine Pt (IV) complex], the “BUN after the 1st time injection” value in the data set on male ICR mice (setting [2]) is listed as 22.0 ± 4.1; with male ICR mice (setting [3]) it was 21.5 ± 5.1; with male ICR mice (setting [4]) it was 24.0 ± 6.2; in the data set with male ICR mice (setting [5]) it was 22.4 ± 3.3. The “Uric acid after the 1st time injection” value was found to be 2.34 ± 1.0 in the data set on male ICR mice (setting [2]), 1.52 ± 0.3 in the data set on male ICR mice (setting [3]), 2.66 ± 0.7 in the data set on male ICR mice (setting [4]) and 2.0 ± 1.5 with male ICR mice (setting [5]). Also, in the data set on HL60 cells, the “anti-cancer activity (IC50) compared with cisplatin, in words” value is “higher than that of cisplatin”.

For the compound `O=C1CC(=O)[O][Pt]2([NH]CCCC[NH]2)[O]1` [7 Mal, malonato-1,4-butanediamine Pt(II) complex], the “Cell Growth” value with L1210 cells (0.01 μM) is 91; with L1210 cells (0.05 μM), 95; in the data set with L1210 cells (0.1 μM), 93; with L1210 cells (0.5 μM) it was 84.8; in the data set on L1210 cells (1 μM) it was 80.1; in the data set on L1210 cells (5 μM), 68. Also, the “Cell Growth” value is 55 in the data set on L1210 cells (10 μM); 26.1 in the data set on L1210 cells (50 μM); 20.5 in the data set with L1210 cells (100 μM); 92 with HL60 cells (0.01 μM); 89 in the data set with HL60 cells (0.05 μM); 89 with HL60 cells (0.1 μM). In addition, the “Cell Growth” value in the data set with HL60 cells (0.5 μM) came out at 82.6; in the data set on HL60 cells (1 μM), 78.8; in the data set with HL60 cells (5 μM), 63.2; in the data set with HL60 cells (10 μM), 57; with HL60 cells (50 μM), 27; in the data set with HL60 cells (100 μM), 20. Also, the half-maximal inhibitory concentration (IC50) with L1210 cells turned out to be 15 µM; in the data set with HL60 cells it was 13.8 µM.

Take `N.N.[Cl][Pt][Cl]` [CDDP, cis-Diaminedichloroplatinum(II)]: the IC50 with HL60 cells amounted to 2.74 µM.

Turning to `O=C([O][Pt]1([Cl])([Cl])([O]C(=O)C(F)(F)F)[NH]CCCC[NH]1)C(F)(F)F` [7(TF)Cl, trans, cis-ditriflioroacetato,dichloro-1,4-butanediamine Pt(IV) complex], the “BUN after the 1st time injection” value in the data set on male ICR mice (setting [2]) is given as 23.1 ± 3.3; in the data set with male ICR mice (setting [3]), 20.7 ± 3.5; in the data set with male ICR mice (setting [4]), 28.8 ± 6.4; with male ICR mice (setting [5]) it was 18.1 ± 2.3. Also, the “Uric acid after the 1st time injection” value in the data set on male ICR mice (setting [2]) was 1.82 ± 0.5; in the data set with male ICR mice (setting [3]) it was 1.88 ± 0.3; in the data set on male ICR mice (setting [4]), 2.2 ± 0.9; in the data set with male ICR mice (setting [5]) it was 2.22 ± 0.7. In addition, the “anti-cancer activity (IC50) compared with cisplatin, in words” value is “superior to cisplatin(CDDP)” in the data set with L1210 cells and “superior to that of cisplatin” with HL60 cells. In addition, the “ultra-structural changes of proximal renal tubule epithelial cells (TEM)” value is “seriously damaged findings” in data set [1] (sacrificed 6 hours after i.p. injection) and “most of cytoplasmic organelles were damaged” in data set [1] (sacrificed 3 days after i.p. injection).

For the compound `NCCN.[Cl][Pt][Cl]` [5 Cl, cis-dichloro,ethylenediamine Pt(II) complex], the IC50 worked out at 11 µM in the data set with L1210 cells and 11.7 µM in the data set with HL60 cells.

For the compound `O=C1CC(=O)[O][Pt]2([O]C(=O)C(F)(F)F)([O]C(=O)C(F)(F)F)([NH]CCCC[NH]2)[O]1` [7(TF)M, trans-ditrifluoroacetato,malonato-1,4-butanediamine Pt(IV) complex], the “BUN after the 1st time injection” value in the data set with male ICR mice (setting [2]) came to 23.1 ± 4.8; in the data set on male ICR mice (setting [3]) it was 22.3 ± 1.7; with male ICR mice (setting [4]), 22.1 ± 3.1; in the data set with male ICR mice (setting [5]), 22.9 ± 1.7. For the same compound, the “Uric acid after the 1st time injection” value with male ICR mice (setting [2]) turned out to be 1.8 ± 0.4; with male ICR mice (setting [3]), 1.96 ± 0.3; in the data set on male ICR mice (setting [4]) it was 2.04 ± 0.3; in the data set with male ICR mice (setting [5]) it was 1.82 ± 0.4. For the same compound, in the data set on HL60 cells, the “anti-cancer activity (IC50) compared with cisplatin, in words” value is “higher than that of cisplatin”.

Consider `[Cl][Pt]1([Cl])[NH]CCC[NH]1` [6 Cl, cis-dichloro-1,3-propanediamine Pt(II) complex], for which the IC50 in the data set on L1210 cells came out at 19.3 µM; with HL60 cells, 16.1 µM.

Consider `O=C1CC(=O)[O][Pt]2([OH])([OH])([NH]CCCC[NH]2)[O]1` [7(OH)M, trans-dihydroxo,malonato-1,4-butanediamine Pt(IV) complex], for which the “anti-cancer activity (IC50) compared with cisplatin, in words” value with L1210 cells and in the data set with HL60 cells was “lower anti-cancer activity than that of cisplatin” in each case.

For `[OH][Pt]1([OH])([Cl])([Cl])[NH]CCCC[NH]1` [7(OH)Cl, trans, cis-dihydroxo,dichloro-1,4-butanediamine Pt(IV) complex], the “anti-cancer activity (IC50) compared with cisplatin, in words” value with L1210 cells and with HL60 cells was “lower anti-cancer activity than that of cisplatin” in each case.

For the compound `[Cl][Pt]1([Cl])[NH]CCCC[NH]1` [7 Cl, cis-dichloro-1,4-butanediamine Pt(II) complex], the IC50 in the data set with L1210 cells was determined as 2.01 µM; in the data set on HL60 cells, 1.83 µM.

Source of the values: patent US6340770B1, “Platinum (IV) complex used as anti-cancer agent and preparing method thereof” (Sook Myung Women's University, priority 1999, dated 2002).
